Among the test systems are A498; HCT-15; HOP-62; K562; KM12; LXFL 529; M19-MEL; MOLT-4; OVCAR-8; RPMI-8226; SK-MEL-28; SK-MEL-2; SN12C; SW-620; TK-10; U-251.
Test in all cases: DTP human tumour cell line panel, 48 h

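Growth conditions: 96-well plates. Treatment: test compound, 48 hours, 5 concentrations. Analysis: linear interpolation between bracketing concentrations; unreached endpoints set to highest concentration. At the GI50, growth is halved.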 The source made the active and inactive calls. No stated cut-off is given here; in the data, active = GI50 up to about 1.1 µM and inactive = higher.

Broadly, the GI50 is the concentration giving 50% growth inhibition. For `CCOc1ccc(/N=C\c2cc(OC)c(OC)c(OC)c2)cc1`, the GI50 was > 100 µM (inactive) with A498; 32.4 µM in the test on HCT-15; > 100 µM (inactive) in the test with HOP-62; 52.5 µM (inactive) in the test on K562; > 100 µM (inactive) with KM12; > 100 µM (inactive) with LXFL 529. The GI50 is > 100 µM (inactive) with M19-MEL; > 100 µM (inactive) with MOLT-4; > 100 µM (inactive) in the test on OVCAR-8; 18.2 µM (inactive) in the test on RPMI-8226; > 100 µM (inactive) in the test with SK-MEL-28; > 100 µM (inactive) in the test with SK-MEL-2. Moreover, the GI50 in the test with SN12C was > 100 µM (inactive); with SW-620, 14.9 µM (inactive); in the test with TK-10 it was > 100 µM (inactive); with U-251, > 100 µM (inactive).
For `COc1ccc(C2S/C(=C\c3cccc([N+](=O)[O-])c3)C(=O)N2NC(=O)Cc2ccccc2)cc1` (stereo unspecified), the GI50 is > 100 µM (inactive) in the test with A498; above 100 µM in the test on HCT-15; > 100 µM (inactive) in the test on HOP-62; > 100 µM (inactive) with K562; > 100 µM (inactive) with KM12; > 100 µM (inactive) in the test on LXFL 529. Moreover, the GI50 with M19-MEL, with MOLT-4, with OVCAR-8, with RPMI-8226, in the test with SK-MEL-28 and with SK-MEL-2 was > 100 µM (inactive) throughout. Besides, the GI50 in the test with SN12C, with SW-620, in the test on TK-10 and in the test on U-251 was > 100 µM (inactive) throughout.
In the case of `COc1c(C(=O)O)oc2c(OC)cccc12`, the GI50 in the test on A498 is > 100 µM (inactive); in the test on HCT-15 it was above 100 µM; in the test with HOP-62 it was > 100 µM (inactive); in the test with K562, > 100 µM (inactive); in the test on KM12, > 100 µM (inactive); in the test with LXFL 529, > 100 µM (inactive). Also, the GI50 with M19-MEL, in the test with MOLT-4, in the test with OVCAR-8, in the test with RPMI-8226, with SK-MEL-28 and in the test on SK-MEL-2 was > 100 µM (inactive) each time. The GI50 in the test with SN12C, in the test on SW-620, in the test with TK-10 and in the test on U-251 was > 100 µM (inactive) each time.
In the case of `CC1=C(/C(C)=N/NC(=O)C(N)=O)Sc2ccccc2N1`, the GI50 with A498 was > 100 µM (inactive); in the test on HCT-15, above 100 µM; with HOP-62 it was > 100 µM (inactive); in the test on K562, > 100 µM (inactive); with KM12, > 100 µM (inactive); with LXFL 529, > 100 µM (inactive). The GI50 with M19-MEL, in the test with MOLT-4, in the test on OVCAR-8, with RPMI-8226, in the test on SK-MEL-28 and in the test with SK-MEL-2 was > 100 µM (inactive) each time. Also, the GI50 in the test with SN12C, in the test on SW-620, in the test with TK-10 and in the test with U-251 was > 100 µM (inactive) in each case.
As for `CSC(=S)N/N=C/c1nccc2ccccc12`, the GI50 was 2.45 µM (inactive) with A498; 3.45 µM in the test on HCT-15; 2.25 µM (inactive) in the test with HOP-62; 0.392 µM (active) in the test on K562; 2.68 µM (inactive) in the test on KM12; 0.488 µM (active) in the test on LXFL 529. Besides, the GI50 in the test with M19-MEL is 2.29 µM (inactive); in the test on MOLT-4 it was 0.204 µM (active); with OVCAR-8 it was 0.454 µM (active); in the test with RPMI-8226, 0.522 µM (active); in the test with SK-MEL-28 it was 2.19 µM (inactive); in the test with SK-MEL-2, 1.07 µM (active). Besides, the GI50 was 1.6 µM (inactive) in the test on SN12C, 0.631 µM (active) with SW-620, 7.08 µM (inactive) with TK-10 and 0.875 µM (active) in the test with U-251.
For `C1CCOC2(CCC3(CC2)OCCCCO3)OC1`, the GI50 with A498 was > 100 µM (inactive); with HCT-15, above 100 µM; with HOP-62 it was > 100 µM (inactive); in the test on K562, > 100 µM (inactive); in the test on KM12, > 100 µM (inactive); in the test on LXFL 529 it was > 100 µM (inactive). Moreover, the GI50 with M19-MEL, with MOLT-4, in the test with OVCAR-8, with RPMI-8226, in the test on SK-MEL-28 and in the test on SK-MEL-2 was > 100 µM (inactive) each time. Further, the GI50 with SN12C, in the test on SW-620, in the test on TK-10 and in the test on U-251 was > 100 µM (inactive) each time.
For the compound `CC(=O)O[C@]1(C)OC(=O)[C@@H](CC(C)C)N1[N+](=O)[O-]`, the GI50 in the test with A498 is > 100 µM (inactive); with HCT-15, above 100 µM; in the test with HOP-62, > 100 µM (inactive); in the test on K562 it was > 100 µM (inactive); with KM12, > 100 µM (inactive); in the test on LXFL 529 it was > 100 µM (inactive). The GI50 in the test on M19-MEL, in the test on MOLT-4, with OVCAR-8, in the test on RPMI-8226, in the test on SK-MEL-28 and in the test on SK-MEL-2 was > 100 µM (inactive) each time. Also, the GI50 in the test on SN12C, with SW-620, with TK-10 and in the test with U-251 was > 100 µM (inactive) throughout.
As to `CC(C)N1CC2CC(CN(C(=O)c3ccccc3)C2)C1.[O-][Cl+3]([O-])([O-])O`, the GI50 with A498 is > 100 µM (inactive); in the test on HCT-15, above 100 µM; with HOP-62 it was > 100 µM (inactive); in the test with K562, > 100 µM (inactive); in the test with KM12, > 100 µM (inactive); in the test with LXFL 529 it was > 100 µM (inactive). The GI50 with M19-MEL, in the test with MOLT-4, with OVCAR-8, with RPMI-8226, in the test on SK-MEL-28 and in the test with SK-MEL-2 was > 100 µM (inactive) in each case. Also, the GI50 with SN12C, in the test with SW-620, in the test with TK-10 and in the test on U-251 was > 100 µM (inactive) throughout.
On to `CC1=C(C(=O)Nc2cc(F)c(F)cc2F)C(c2ccc3c(c2)OCO3)C(C(=O)Nc2cc(F)c(F)cc2F)=C(C)N1`, for which the GI50 is 21 µM (inactive) in the test on A498; 16.8 µM (inactive) with HOP-62; 17.9 µM (inactive) in the test on K562; 19.2 µM (inactive) in the test with KM12; 23.2 µM (inactive) in the test on LXFL 529; 20.7 µM (inactive) with M19-MEL. Besides, the GI50 with MOLT-4 was 14.2 µM (inactive); in the test with OVCAR-8, 31 µM (inactive); with RPMI-8226, 16 µM (inactive); in the test with SK-MEL-28 it was 33.2 µM (inactive); in the test with SK-MEL-2, 18 µM (inactive); with SN12C, 18.7 µM (inactive). For the same compound, the figures for the GI50 with SW-620, in the test with TK-10 and with U-251 were 33.5 µM (inactive), 23.9 µM (inactive) and 27.2 µM (inactive), respectively.
Turning to `COc1cc2cc(OC)c3cc4c(cc3c2c(OC)c1OC)OCO4`, the GI50 is > 45.5 µM (inactive) in the test on A498; 12.8 µM in the test with HCT-15; 42.6 µM (inactive) with HOP-62; 9.46 µM (inactive) with K562; 14.2 µM (inactive) in the test on KM12; 31.3 µM (inactive) with LXFL 529. Moreover, the GI50 is 20.8 µM (inactive) in the test on M19-MEL; 22.8 µM (inactive) in the test with MOLT-4; > 59.4 µM (inactive) in the test on OVCAR-8; 14.7 µM (inactive) in the test with RPMI-8226; > 39.6 µM (inactive) in the test with SK-MEL-28; 71 µM (inactive) with SK-MEL-2. The GI50 with SN12C is > 69.3 µM (inactive); in the test with SW-620, 18.6 µM (inactive); in the test with TK-10, 48.3 µM (inactive); with U-251, 20.8 µM (inactive).
On to `O=C(/C=C/c1ccc(Br)cc1)c1ccc(NCc2nc3ccccc3[nH]2)cc1`, for which the GI50 was 19.1 µM (inactive) in the test on A498; 3.95 µM in the test with HCT-15; 22.2 µM (inactive) with HOP-62; 3.35 µM (inactive) in the test on K562; 2.67 µM (inactive) in the test on KM12; 4.24 µM (inactive) with LXFL 529. The GI50 in the test with M19-MEL is 6.56 µM (inactive); with MOLT-4 it was 3.31 µM (inactive); in the test on OVCAR-8, 3.37 µM (inactive); in the test on RPMI-8226, 1.93 µM (inactive); in the test on SK-MEL-28, 18.6 µM (inactive); with SK-MEL-2, 17.6 µM (inactive). Moreover, the GI50 is 9.93 µM (inactive) in the test on SN12C, 2.96 µM (inactive) in the test with SW-620, 11.1 µM (inactive) with TK-10 and 3.83 µM (inactive) in the test on U-251.
`Cn1c2ccccc2c2[nH]cc3nc4ccccc4c-3c21`: the GI50 was 18.7 µM (inactive) with A498; 19.9 µM with HCT-15; > 100 µM (inactive) in the test with HOP-62; 26.7 µM (inactive) in the test with K562; 17 µM (inactive) in the test with KM12; 25.2 µM (inactive) in the test with LXFL 529. Further, the GI50 in the test on M19-MEL was 19.7 µM (inactive); in the test with MOLT-4 it was 23.8 µM (inactive); in the test with OVCAR-8, 20.3 µM (inactive); in the test with RPMI-8226, 19.2 µM (inactive); with SK-MEL-28, 14.8 µM (inactive); in the test with SK-MEL-2, > 100 µM (inactive). The GI50 is 23.5 µM (inactive) in the test on SN12C, 24.7 µM (inactive) in the test on SW-620, 22.3 µM (inactive) in the test with TK-10 and 18.2 µM (inactive) in the test with U-251.
Consider `O=[N+]([O-])c1ccc(C2N3CCCCC3[C@@H]3c4[nH]c5ccccc5c4CCN23)cc1` (stereo partly specified), for which the GI50 was 11.3 µM (inactive) in the test with A498; 14.3 µM with HCT-15; 19.5 µM (inactive) with HOP-62; 7.82 µM (inactive) in the test on K562; 16.8 µM (inactive) in the test with LXFL 529; 6.07 µM (inactive) in the test on M19-MEL. The GI50 with MOLT-4 was 10.2 µM (inactive); in the test with OVCAR-8 it was 30.4 µM (inactive); in the test on RPMI-8226 it was 16.5 µM (inactive); in the test on SK-MEL-28, 16.3 µM (inactive); with SK-MEL-2, 16.9 µM (inactive); with SN12C it was 15.4 µM (inactive). Also, the GI50 is 22.6 µM (inactive) in the test on SW-620, 10.7 µM (inactive) in the test with TK-10 and 20.2 µM (inactive) in the test on U-251.

Source of the values: ChEMBL document CHEMBL1201862, “PubChem BioAssay data set” (2004).
